These results are taken from US20160354411A1, “OLIVAMINE-INDUCED IMPROVEMENT IN ENDOTHELIAL CELLS VIABILITY AND FUNCTION” (priority 2015, published 2016).

In series [1] the test system is human microvascular endothelial cells. The experiment in a line: in vitro model of wound healing, time for 50% wound to heal. The format is cell-based. An excerpt: The time for wounds to heal by 50% under the various treatment conditions was quantified.
The next series deals with HMEC-1 cells. The experiment in a line: crystal violet cell viability assay. The format is cell-based, human. As to conditions: 24 hours; HT 0-200 μM, OL 0-800 μM, Formulation 1 0-4×. The method, then:
A crystal violet cell viability assay was performed to determine the cytotoxic effects of OLIVAMINE® (compositions of hydroxytyrosol and oleuropein) composition on HMEC-1 cells. Briefly, cells were seeded on a 24-well plate and treated for 24 h dose-titration concentrations of HT (0-200 μM), OL (0-800 μM), OLIVAMINE® (compositions of hydroxytyrosol and oleuropein) composition (McCord formulation 1, dilution factor=4×, Table 8). Following treatment, cells were washed twice with 0.9% saline and fixed with […] of 4% neutral formalin for 15-30 min. Cells were then stained with […] of 0.01% (w/v) crystal violet for 30 min, washed with dH2O and left to dry under a fume hood overnight. Cells were then lysed with […] of lysis buffer for 15 min on a rotating platform and the absorbance of each well was measured at the 560 nm wavelength using a microplate spectrophotometer.
To determine whether olive phenols influence cell proliferation, a crystal violet cell viability analysis was conducted. The relative cell viability of HMEC-1 cells was investigated. Cells were incubated with varying concentrations of HT (0-200 μM), OL (0-800 μM) and Formulation 1 (Table 8, 0-4×) 24 hours.

The test system of series [2] is human umbilical vein endothelial cells (HUVEC). The experiment in a line: HUVEC cell migration / wound gap closure with or without 30 mM glucose pre-treatment. Format: cell-based. The conditions noted are these: for Time for 50% wound to heal: 24 hours incubation before wounding; for Healing Improvement (%): compared to untreated cells. The protocol:
Additional wound studies were conducted using umbilical cord stem cells in addition to the use of hydroxytyrosol compositions and commercially-available OLIVAMINE® (compositions of hydroxytyrosol and oleuropein) compositions (20 μM hydroxytyrosol, 80 μM oleuropein, 2 mM N-acetylcysteine, 50 μM L-proline, 2 mM glycine and 100 μM taurine). These were evaluated with human umbilical vein endothelial cells (HUVEC) to assess impact on cell migration and wound healing.
HUVEC cells. Human umbilical vein endothelial cells are derived from the endothelium of veins from the umbilical cord (HUVEC primary cells purchased from Lonza). HUVECs have been widely used as a model system for the study of the regulation of endothelial cell function and the role of the endothelium in response of the blood vessel wall to stretch, shear forces and the development of atherosclerotic plaques and angiogenesis. For the following study, HUVECs are a primary endothelial cell line as a model system for the function and pathology of endothelial cells. We investigated improvement in cell proliferation and migration following treatment with OLIVAMINE® (compositions of hydroxytyrosol and oleuropein) composition.
In this study, HUVEC cells were pre-treated with or without 30 mM glucose for 3 days (72 hours). The cells were then equilibrated for a day (24 hours), and incubated with 50 μM hydroxytyrosol or OLIVAMINE® (compositions of hydroxytyrosol and oleuropein) formulation (20 μM hydroxytyrosol, 80 μM oleuropein, 2 mM N-acetylcysteine, 50 μM L-proline, 2 mM glycine and 100 μM taurine) for 24 hours before wounding.
Images were taken at intervals and the wound gap was quantified over time using IMAGE® analysis software. […] The distances measured are depicted in the Figures by the horizontal solid lines indicating the distance between the gaps of the wound. 100 measurements were taken per image and a mean gap distance was determined. As shown in FIGS. 7-8 the initial wound and 24 hour measurement are shown by the images, under both control (FIG. 7A) and high glucose (FIG. 8A). In addition the reduction in percentage of open wound is further shown graphically for the control (FIG. 7B) and high glucose (FIG. 8B) conditions. The time for 50% of the wound to heal was quantified as well as the percentage of improvement compared to untreated cells.

The test system of another series is proliferative cells. Kind of series: induction or maintenance of a quiescent cell state. Format: cell-based. The conditions noted are these: evidence obtained to-date. The method, then: More specifically, when present at a concentration above a threshold level, hydroxytyrosol can induce proliferative cells into a quiescent state and help maintain cells in a pre-existing quiescent state. Based upon evidence obtained to-date, the threshold concentration is about 10 μM hydroxytyrosol.

[3] abbreviates: Table 9, single ingredients, Present Art and Present Art without one ingredient.

With `NCC(=O)O` [Glycine], the “Time for 50% wound to heal” value in series [1] (setting [3]) amounted to 20.73 h.
Regarding `OCCc1ccc(O)c(O)c1` [Hydroxytyrosol], the “effect on cell proliferation / viability” value in the series on HMEC-1 cells is recorded as “no significantly effects on cell proliferation”. Also, the “Time for 50% wound to heal” value in series [2] (High Glucose (30 mM, 72 hours)) stood at 15.2 h; in series [2] (no glucose pre-treatment), 19.7 h; in series [1] (Table 1), 19.25 h; in series [1] (setting [3]), 19.25 h. Also, the “Healing Improvement (%)” value in series [2] (High Glucose) stood at 30%; in series [2] (no glucose pre-treatment), 10%. The “less effective than the present art combination” value in series [1] (hydroxytyrosol alone) amounted to 30%. In addition, in the series on proliferative cells, the “threshold concentration for inducing or maintaining quiescence” value is “about 10 μM”.
Turning to `NCCS(=O)(=O)O` [L-Taurine], the “Time for 50% wound to heal” value in series [1] (setting [3]) was 22.5 h.
For `O=C(O)[C@@H]1CCCN1` [L-proline], the “Time for 50% wound to heal” value in series [1] (setting [3]) amounted to 23.24 h.
For the compound `CC(=O)N[C@@H](CS)C(=O)O` [N-acetylcysteine, N-acetyl-L-cysteine, reference compound], the “Time for 50% wound to heal” value in series [1] (Table 1) and in series [1] (setting [3]) was 28.87 h throughout. In series [1] (compared to untreated or to single ingredients, absence and presence of glucose), the “effect on time and extent of wound healing (in words)” value was “increased the time to 50% healing compared to untreated”.
For `C/C=C1/[C@H](O[C@@H]2O[C@H](CO)[C@@H](O)[C@H](O)[C@H]2O)OC=C(C(=O)OC)[C@H]1CC(=O)OCCc1ccc(O)c(O)c1` [Oleuropein], the “effect on cell proliferation / viability” value with HMEC-1 cells is “no significantly effects on cell proliferation”. Besides, the “Time for 50% wound to heal” value in series [1] (Table 1) and in series [1] (setting [3]) was 25.62 h throughout.
